Assay results as given in patent US11434227B2, “Broad spectrum antibacterial activity of novel bisbenzimidazoles targeting topoisomerase IA and the synergistic composition of bisbenzimidazole with efflux pump inhibitors against pathogenic bacteria” (Jawaharlal Nehru University (JNU), priority 2016, dated 2022).
Values after ≈ are worked out from the molar mass of the structure shown. Where two headings read alike, the source gives them in different places.

Columns and labels:
[1] = tested on: Shigella flexineri (MTCC1457); assay: Susceptibility (MIC50/MIC90), broth microdilution; assay type: cell-based
[2] = tested on: Mycobacterium tuberculosis H37Ra (avirulent); assay: Susceptibility of Mycobacterium tuberculosis strains (MIC90); assay type: cell-based
[3] = tested on: Mycobacterium tuberculosis H37Rv (virulent); assay: as above; assay type: cell-based
S. aureus 1016 = assay: Neutropenic thigh infection model; assay type: in vivo, Balb/c mice
From the text: Craig, was used in this study.

[4] = tested on: isogenic efflux deleted strains; assay: Susceptibility of isogenic efflux deleted strains versus wild type; assay type: cell-based, Escherichia coli; settings: in comparison to wild type strains
M. tuberculosis = assay: Effect on virulent and avirulent strains of M. tuberculosis; assay type: cell-based, Mycobacterium tuberculosis
E. coli ATCC 25922 = assay: Neutropenic thigh infection model
Description: The neutropenic mice thigh infection model, fully described by. Craig, was used in this study. Female Balb/c mice (6 mice per dosing group) weighing 20-25 g were rendered neutropenic with 2 intraperitoneal injections of cyclophosphamide (150 mg/kg of body weight 4 days prior to bacterial inoculation and 100 mg/kg 1 day before inoculation) 2 h prior to bacterial inoculation. […] Bacteria were injected into the right thigh of each mouse at time zero. […] Neutropenia was defined as an absolute neutrophil count of 500 polymorphonuclear leukocytes/cm^3 of blood. The bacterial suspension was diluted to a concentration of 10^6 CFU/mL with normal saline. Then, 0.1 mL of the bacterial suspension was injected into each posterior thigh muscle 2 h after the second dose of cyclophosphamide was administered. […] Twenty-four hours after drug treatment was begun, the mice were humanely sacrificed. Right thigh muscles from each mouse were aseptically collected, homogenized and serially diluted 1:10 in phosphate buffer saline, and processed for quantitative cultures.

Enterococcus sp. (2105) = assay: Susceptibility (MIC50/MIC90), broth microdilution
Description: (§1) MICs were determined by the broth microdilution method according to CLSI methods (Clinical and Laboratory Standards Institute, 2005). Inoculants were incubated at 37° C. on cation adjusted Mueller Hinton (MH) Broth for 18 to 24 h. Compound were dissolved in media to 10 doubling dilutions from 128 to 0.125 μg/mL. All the bacterial strains were grown in 96 well plate with low evaporation lid (Falcon, Becton Dickinson) in presence of derivatives of benzimidazoles at 0.125, 0.25, 0.5, 1, 2, 4, 8, 16, 32, 64, 128, 256 μg/mL concentrations. […] Plates were read by Tecan Micro-plate Reader at 600 nm.

Enterococcus sp. (1121) = assay: Susceptibility (MIC50/MIC90), broth microdilution
Description: as §1

Enterococcus sp. (1365) = assay: Susceptibility (MIC50/MIC90), broth microdilution
Description: as §1

Enterococcus sp.(1150) = assay: Susceptibility (MIC50/MIC90), broth microdilution
Description: as §1

Enterococcus sp. (1367) = assay: Susceptibility (MIC50/MIC90), broth microdilution
Description: as §1

Enterococcus sp. (432) = assay: Susceptibility (MIC50/MIC90), broth microdilution
Description: as §1

Staphylococcus sp. (976) = assay: Susceptibility (MIC50/MIC90), broth microdilution
Description: as §1

Staphylococcus sp. (982) = assay: Susceptibility (MIC50/MIC90), broth microdilution
Description: as §1

[5] = tested on: Staphylococcus sp. (1016); assay: Susceptibility (MIC50/MIC90), broth microdilution
Description: as §1

Escherichia coli 385 = assay: Susceptibility (MIC50/MIC90), broth microdilution
Description: as §1

Escherichia coli 392 = assay: Susceptibility (MIC50/MIC90), broth microdilution
Description: as §1

[6] = tested on: Acinetobacter baumannii (MTCC1920); assay: Susceptibility (MIC50/MIC90), broth microdilution
Description: as §1

[7] = tested on: Acinetobacter baumannii (AB387); assay: Susceptibility (MIC50/MIC90), broth microdilution
Description: as §1

[8] = tested on: Acinetobacter baumannii (AB312); assay: Susceptibility (MIC50/MIC90), broth microdilution
Description: as §1

[9] = tested on: Pseudomonas aeruginosa (Ps162); assay: Susceptibility (MIC50/MIC90), broth microdilution
Description: as §1

[10] = tested on: Pseudomonas aeruginosa (MTCC1688); assay: Susceptibility (MIC50/MIC90), broth microdilution
Description: as §1

[11] = tested on: Pseudomonas aeruginosa (MTCC 366); assay: Susceptibility (MIC50/MIC90), broth microdilution; settings: MTCC366
Description: as §1

[12] = tested on: Klebsiella planticola (MTCC 2272); assay: Susceptibility (MIC50/MIC90), broth microdilution; settings: MTCC2272
Description: as §1

[13] = tested on: Klebsiella planticola (K1164); assay: Susceptibility (MIC50/MIC90), broth microdilution
Description: as §1

[14] = tested on: Klebsiella planticola (K235); assay: Susceptibility (MIC50/MIC90), broth microdilution
Description: as §1

[15] = tested on: Klebsiella planticola (K589); assay: Susceptibility (MIC50/MIC90), broth microdilution
Description: as §1

[16] = tested on: Salmonella typhimurium (MTCC 1251); assay: Susceptibility (MIC50/MIC90), broth microdilution; settings: Salmonella enterica
Description: as §1

[17] = tested on: Salmonella typhimurium (St412); assay: Susceptibility (MIC50/MIC90), broth microdilution; settings: Salmonella enterica
Description: as §1

E. coli K12 = assay: Susceptibility of E. coli K12 and mutants (MIC90); settings: Escherichia coli
Description: as §1

E. coli K12 mutant ΔacrA = assay: Susceptibility of E. coli K12 and mutants (MIC90); settings: Escherichia coli
Description: as §1

E. coli K12 mutant ΔemrA = assay: Susceptibility of E. coli K12 and mutants (MIC90); settings: Escherichia coli
Description: as §1

E. coli K12 mutant ΔtolC = assay: Susceptibility of E. coli K12 and mutants (MIC90); settings: Escherichia coli
Description: as §1

E. coli K12 mutant ΔompC = assay: Susceptibility of E. coli K12 and mutants (MIC90); settings: Escherichia coli
Description: as §1

E. coli K12 mutant ΔompF = assay: Susceptibility of E. coli K12 and mutants (MIC90); settings: Escherichia coli
Description: as §1

[18] = tested on: E. coli K12 mutant ΔTopIA; assay: Susceptibility of E. coli K12 and mutants (MIC90); settings: Escherichia coli
Description: as §1

[19] = tested on: E. coli K12 mutant ΔTopIB; assay: Susceptibility of E. coli K12 and mutants (MIC90); settings: Escherichia coli
Description: as §1

[20] = tested on: Escherichia coli (ATCC 25922); assay: Susceptibility (MIC, PAE, MBC), broth microdilution
[21] = Neutropenic thigh, ATCC 25922, single i.v. bolus, 24 h

## CCCCN1CCN(c2ccc3nc(-c4ccc5[nH]c(-c6ccc(OC)c(OC)c6)nc5c4)[nH]c3c2)CC1 [SP12a, 5-(4-butylpiperazin-1-yl)-2′-(3,4-dimethoxyphenyl)-1H,1′H-2,5′-bibenzo[d]imidazole]
[1]
  MIC50: 0.24 µg/mL (≈ 0.47 µM)
  MIC90: 0.8 µg/mL (≈ 1.57 µM)
[2]
  MIC90: 7.3 µg/mL (≈ 14.3 µM)
[3]
  MIC90: 14.6 µg/mL (≈ 28.6 µM)
S. aureus 1016; Neutropenic thigh, S. aureus 1016, single i.v. bolus, 24 h
  Dose at 1.7 log reduction: 4 mg/kg bw/day
S. aureus 1016; balb/c mice neutropenia thigh model, Gram positive S1016
  bacterial load reduction: significant bacterial load reduction
[4]
  sensitisation of efflux deleted strains: more sensitised
M. tuberculosis
  effect on M. tuberculosis: effective against M. tuberculosis
E. coli ATCC 25922; [21]
  Dose at 0.8 log reduction: 2 mg/kg bw/day
  Dose at 3.4 log reduction: 4 mg/kg bw/day
E. coli ATCC 25922; balb/c mice neutropenia thigh model, gram negative ATCC25922
  bacterial load reduction: significant bacterial load reduction
Enterococcus sp. (2105)
  MIC50: 4.32 µg/mL (≈ 8.46 µM)
  MIC90: 12.2 µg/mL (≈ 23.9 µM)
Enterococcus sp. (1121)
  MIC50: < 0.25 µg/mL
  MIC90: 0.88 µg/mL (≈ 1.72 µM)
Enterococcus sp. (1365)
  MIC50: < 0.25 µg/mL
  MIC90: < 0.25 µg/mL
Enterococcus sp.(1150)
  MIC50: < 0.25 µg/mL
  MIC90: < 0.25 µg/mL
Enterococcus sp. (1367)
  MIC50: < 0.25 µg/mL
  MIC90: < 0.25 µg/mL
Enterococcus sp. (432)
  MIC50: > 128 µg/mL
  MIC90: > 128 µg/mL
Staphylococcus sp. (976)
  MIC50: < 0.25 µg/mL
  MIC90: 0.4 µg/mL (≈ 0.783 µM)
Staphylococcus sp. (982)
  MIC50: 0.5 µg/mL (≈ 0.979 µM)
  MIC90: 1 µg/mL (≈ 1.96 µM)
[5]
  MIC90: 5.7 ± 0.046 µg/mL (≈ 11.2 µM)
[5]; Staphylococcus
  MIC50: 1.2 µg/mL (≈ 2.35 µM)
  MIC90: 5.7 µg/mL (≈ 11.2 µM)
Escherichia coli 385
  MIC50: 3.9 µg/mL (≈ 7.64 µM)
  MIC90: 6.5 µg/mL (≈ 12.7 µM)
Escherichia coli 392
  MIC50: 1.5 µg/mL (≈ 2.94 µM)
  MIC90: 13.7 µg/mL (≈ 26.8 µM)
[6]
  MIC50: 128 µg/mL (≈ 251 µM)
  MIC90: 128 µg/mL (≈ 251 µM)
[7]
  MIC50: 3.6 µg/mL (≈ 7.05 µM)
  MIC90: 10.8 µg/mL (≈ 21.1 µM)
[8]
  MIC50: 4.6 µg/mL (≈ 9.01 µM)
  MIC90: 12.9 µg/mL (≈ 25.3 µM)
[9]
  MIC50: 5.22 µg/mL (≈ 10.2 µM)
  MIC90: > 128 µg/mL
[10]
  MIC50: 128 µg/mL (≈ 251 µM)
  MIC90: 128 µg/mL (≈ 251 µM)
[11]
  MIC50: < 0.25 µg/mL
  MIC90: < 0.25 µg/mL
[12]
  MIC50: 128 µg/mL (≈ 251 µM)
  MIC90: 128 µg/mL (≈ 251 µM)
[13]
  MIC50: > 128 µg/mL
  MIC90: 128 µg/mL (≈ 251 µM)
[14]
  MIC50: 3.1 µg/mL (≈ 6.07 µM)
  MIC90: 25.9 µg/mL (≈ 50.7 µM)
[15]
  MIC50: 10.3 µg/mL (≈ 20.2 µM)
  MIC90: 29.4 µg/mL (≈ 57.6 µM)
[16]
  MIC50: < 0.25 µg/mL
  MIC90: 0.25 µg/mL (≈ 0.49 µM)
[17]
  MIC50: < 0.25 µg/mL
  MIC90: 0.25 µg/mL (≈ 0.49 µM)
E. coli K12
  MIC90: 16 µg/mL (≈ 31.3 µM)
E. coli K12 mutant ΔacrA
  MIC90: 3.4 µg/mL (≈ 6.66 µM)
E. coli K12 mutant ΔemrA
  MIC90: 7.9 µg/mL (≈ 15.5 µM)
E. coli K12 mutant ΔtolC
  MIC90: 0.7 µg/mL (≈ 1.37 µM)
E. coli K12 mutant ΔompC
  MIC90: 6.7 µg/mL (≈ 13.1 µM)
E. coli K12 mutant ΔompF
  MIC90: 6.5 µg/mL (≈ 12.7 µM)
[18]
  MIC90: 3.9 µg/mL (≈ 7.64 µM)
[19]
  MIC90: 12.8 µg/mL (≈ 25.1 µM)
[20]; ATCC 25922, Table 6
  MIC90: 7.3 ± 0.024 µg/mL (≈ 14.3 µM)
[20]; Escherichia coli, ATCC25922
  MIC50: 3 µg/mL (≈ 5.87 µM)
  MIC90: 7.3 µg/mL (≈ 14.3 µM)
